Laboratory results taken from patent US10195212B2, “Glucocorticoid-loaded nanoparticles for prevention of corneal allograft rejection and neovascularization” (The Johns Hopkins University, priority 2014, dated 2019).
Counter-ions that a name gives are not always drawn.

Columns and labels:
[1] = hydrocortisone = 1; cited from earlier work
[2] = system: transplanted corneal grafts; assay: Corneal allograft rejection after penetrating keratoplasty, weekly SC injection; type: in vivo, Lewis rats; details: for survival rate of cornea grafts: weekly SC 50 μL at 1 mg DSP/mL
Procedure: All procedures performed with rats were approved by the Johns Hopkins University Animal Care and Use Committee. The Brown-Norway donor rats were sacrificed and the central corneal button of both eyes were removed with a 4.0-mm trephine and kept in physiological solution ready for use. The surgery was performed by a corneal surgeon (QP) under an operating microscope. The cornea recipient Lewis rats were anesthetized with an intramuscular injection of a mixture of Ketamine (80 mg/kg) and Xylazine (8 mg/kg). Repeated instillations of 0.5% tropicamide eye drops were used on Lewis rats for total pupil dilation before surgery. A paracentesis was performed before trephinization, and the anterior chamber was filled with hyaluronic acid. The corneal buttons were removed from the receptor Lewis rats with a 3.5-mm trephine. The donor corneal button was sutured to receptor cornea with 8 suture points.
All groups of animals were undertaken same treatment once every week until the failure of grafts or the end point of study (9 week).
The clinical observations with a slit lamp microscope were performed by two ophthalmologists (QP and LT) on post-operational (PO) 2 week for group 1 and group 2, PO 4 week for group 3 and PO 9 week for group 4. Three parameters were evaluated for the examination of the corneal grafts (cornea transparency, edema and neovascularization). The scoring for the parameters is presented below.
Intraocular pressure was monitored at PO 2 day, 1 week, 2 week, 4 week, 6 week, 8 week and 9 week after the surgery. IOP recorded for each eye is the average of three successful measurements. Animals at the end time points were sacrificed by CO2 and the eyes with PK surgery were enucleated. Eye tissues were fixed with 10% formalin for 24 h before embedding in paraffin. Sections (5 μm) were cut from through the direction of optical nerve and cornea, and stained with H&E.

[3] = In vivo ocular DSP levels after SC injection ([3H]-labeled DSP); parameters: species or system Sprague Dawley rat
Procedure: Nanoparticles were suspended in saline at 20 μCi/mL. […] 40 μL (˜0.8 μCi per eye) of same formulation was injected to both eyes of the same animal (Sprague Dawley rat). At the indicated time intervals, 2 h, 1 day, 3 day, 5 day and 7 day after injection, the rats were anesthetized by intramuscular injection of ketamine/xylazine solution. The animal was sacrificed after collecting two drops of blood from the tail vein.
The eye ball with conjunctiva tissue was carefully removed from rats and rinsed with PBS, dried by Kimwipe tissue. The anterior chamber humor, cornea, vitreous, retina and the remaining eye ball tissue were carefully dissected and collected. Both cornea and retina tissues were rinsed with PBS and dried with Kimwipe tissue. All the samples were weighed, dissolved with 2 mL of Solvable by incubation at 50° C. overnight. Blood samples were bleached with 0.2 ml H2O2 and 20 μL, 0.5M EDTA. 10 ml […] scintillation medium was added before counting the radioactivity in a scintillation counter. The results were expressed as a percentage of the injected dose and are the mean±sd of four eyes (2 animals) per data point. […] Total percentage of injected dose at the periocular tissue and the radioactivity per mg (or mL) of tissue were calculated.
Fifty μL (˜0.8 per eye) of the same formulation was administered to both eyes of the same animal (Sprague Dawley rat) through SC injection. At POD14, the rats under anesthesia were sacrificed after collecting two drops of blood from the tail vein. The aqueous, vitreous, and the remaining ocular tissues containing injection sites were carefully dissected and collected. All the samples were weighed and then dissolved with 2 mL of Solvable (Perkin Elmer, Waltham, Mass.) by incubation at 50° C. overnight. Blood samples were bleached with 0.2 mL H2O2 and 20 μL 0.5M EDTA. Ten milliliters of Ultima gold scintillation medium (Perkin Elmer, Waltham, Mass.) was added before counting the radioactivity in a scintillation counter (Perkin Elmer, Waltham, Mass.). The results were expressed as a percentage of the injected dose and are the mean±standard deviation (SD) of four eyes per data point. […] The total percentage of the injected dose at the injection sites and the radioactivity per mg of tissue or mL of blood were calculated.

## C[C@]12C=CC(=O)C=C1CC[C@@H]1[C@@H]2[C@@H](O)C[C@@]2(C)[C@H]1CC[C@]2(O)C(=O)CO [Prednisolone]
[1]
  Relative Potency of Glucocorticoid: 4

## C[C@@H]1C[C@H]2[C@@H]3CCC4=CC(=O)C=C[C@]4(C)[C@@]3(F)[C@@H](O)C[C@]2(C)[C@@]1(O)C(=O)COP(=O)(O)O [DSP, Dexamethasone 21-phosphate sodium salt]
[2]; PO 2 week
  survival rate of cornea grafts: 100%
[2]; PO 3 week
  survival rate of cornea grafts: 80%
[2]; PO 4 week for DSP, PO 9 week for DSP-NP
  histological examination of cornea tissues at end point: swollen and thicker than the normal healthy cornea
[2]; PO, weekly SC injection
  time at which all grafts were rejected: 4 week
[2]; weekly SC injection
  cornea transparency (clinical observation): as opaque as saline control and NP control groups
[2]; weekly SC injection, versus control groups
  graft neovascularization (clinical observation): less neovascularization
[2]; weekly SC injection, versus saline and NP control
  graft edema (clinical observation): significant less edema
[3]; PO 2 h, SC injection
  DSP level in blood: ≤ 350 ng DSP per ml
[3]; PO 2 h, single SC injection, ~0.08 mg DSP
  total dose retained at the conjunctiva tissue: Approximately 0.4%
[3]; PO 7 day after SC administration
  DSP in anterior chamber and vitreous: not detectable
[3]; PO day 1, single SC injection
  DSP at the conjunctiva tissue: almost no DSP can be detected
[3]; SC injection
  DSP levels at retina and cornea: very low
[3]; rat, in vivo, sc
  time to clearance after SC injection: up to 2 hours

## C[C@]12C=CC(=O)C=C1CC[C@H]1[C@@H]3C[C@@H](O)[C@](O)(C(=O)CO)[C@@]3(C)C[C@H](O)[C@@]12F [Triamcinolone]
[1]
  Relative Potency of Glucocorticoid: 5

## C[C@]12CCC(=O)C=C1CC[C@@H]1[C@@H]2[C@@H](O)C[C@@]2(C)[C@H]1CC[C@]2(O)C(=O)CO [Hydrocortisone]
[1]
  Relative Potency of Glucocorticoid: 1

## CC(=O)OCC(=O)[C@@]1(O)[C@H](C)C[C@H]2[C@@H]3C=C(C)C4=Cc5c(cnn5-c5ccccc5)C[C@]4(C)[C@H]3[C@@H](O)C[C@@]21C [Cortivazol]
[1]
  Relative Potency of Glucocorticoid: 50
